pIC50: −log10 of the molar value. Active and inactive are the calls of the source. The calls are words filed in the database; no cut-off is given here.
Assays:
Synechocystis sp. = assay: Inhibition of Synechocystis sp. recombinant diguanylate cyclase Slr1143 expressed in Escherichia coli DH5alpha at 100 uM after 2 mins
[1] = Inhibition of Synechocystis sp. recombinant diguanylate cyclase Slr1143 expressed in Escherichia coli DH5alpha after 2 mins

Row | inhibition (Synechocystis sp.) | pIC50 [1] | Compound
1 | 60% | 4.16 | O=P1(O)OC[C@H]2O[C@H](n3cnc4c(O)ncnc43)[C@H](O)[C@@H]2OP(=O)(O)OC[C@@H]2O[C@H](n3cnc4c(O)ncnc43)[C@@H](O)[C@H]2O1
2 | Active |  | O=c1ccn([C@H]2O[C@@H]3COP(=O)(O)O[C@@H]4[C@H](O)[C@@H](n5ccc(=O)[nH]c5=O)O[C@H]4COP(=O)(O)O[C@H]3[C@H]2O)c(=O)[nH]1

Source: ChEMBL document CHEMBL1240525, “Synthesis of cyclic di-nucleotidic acids as potential inhibitors targeting diguanylate cyclase” (Bioorg Med Chem, 2010)
